In assay [1] the test system is Pseudomonas aeruginosa (ATCC 27853 and various PSI strains). In words: Zone of inhibition test, Procedure 2. The assay is classed as cell-based. The settings on record: Pseudomonas aeruginosa on DSA plates, 37° C., over the test period (every 24 hours for 72 hours). How it is done: (§1) Six 2 cm×2 cm squares of each sample are cut out in sterile conditions. On day one of the experiment, cultures of both Pseudomonas aeruginosa (ATCC 27853 and various PSI strains) and Staphylococcus aureus (provided by the Dept of Clinical Microbiology and Pathology) are incubated aerobically at 37° C. for 24 hours on Diagnostic Sensitivity Agar (DSA). After 24 hours test samples are each placed on a DSA plate and immediately wetted with 0.5 mls of a buffer solution. Three squares of sample are placed on plates inoculated with Pseudomonas aeruginosa and three are placed on plates inoculated with Staphylococcus aureus. The plates are then incubated at 37° C. for 24 hours. The zone of inhibited growth around the sample is then measured using calipers, and the test sample is placed on a new inoculated DSA plate. A swab test is carried out on the area beneath the sample to determine if the sample is bacteriostatic if not bactericidal by smearing the swab on a DSA plate and incubating it for 24 hours and then examining the growth.

The subject of a further assay is Staphylococcus aureus. In words: Zone of inhibition test, Procedure 2. The class given is cell-based. To be noted: Staphylococcus aureus on DSA plates, 37° C., over the test period (every 24 hours for 72 hours). As for the experimental part:
as §1

Drawing on patent US10143771B2, “Antioxidant and antimicrobial wound dressing materials” (KCI USA, Inc., priority 2003, dated 2018), this text covers zone of inhibition for one compound.

As to `O=[N+]([O-])[O-].[Ag+]` [silver nitrate solution (0.5%), silver nitrate], the zone of inhibition result (in assay [1]; in the assay with Staphylococcus aureus) was “zones of inhibition were observed” in each case.
